Measured values as given in PMC10638401, “Mannich-type modifications of (−)-cannabidiol and (−)-cannabigerol leading to new, bioactive derivatives” (Scientific Reports, 2023).
Values after ≈ are worked out from the molar mass of the structure shown. Read-outs that look alike come from different tables or passages of the source.

Experiments:
[1] = system: Vero E6 cells; conditions: uninfected Vero E6 cells, three days, XTT
[2] = system: Bacillus subtilis; assay: MIC, broth micro dilution
Description: (§6) According to CLSI guideline the Minimal Inhibitory Concentrations (MICs) of the prepared compounds were determined with the broth micro dilution method. After an overnight growth on 5% bovine blood agar plates at 35 °C bacterial strains were suspended in physiological saline in order to reach the density of 0.5 McFarland for inoculation. Stock solutions containing different concentrations of the substances were prepared in DMSO and H2O (1:1). These were twofold serially diluted from 256 to 0.5 mg/l in Mueller–Hinton broth, and 100 ml of each dilution was inoculated with 10 ml of each bacterial suspension.

[3] = system: MSSA (Methicillin Sensitive Staphylococcus aureus); assay: MIC, broth micro dilution
[4] = system: SARS-CoV-2; assay: SARS-CoV-2 immunofluorescence assay (nucleoprotein expression) in Vero E6 cells; type: cell-based; conditions: three days
Description: (§1) CBD and CBG derivatives were further tested for their ability to inhibit SARS-CoV-2 replication in Vero E6 cells. Initially, the inhibition of virus-induced cytopathic effect was measured by addition of twofold serial dilutions of each derivative to the cells, followed by the infection with SARS-CoV-2 and determination of the cell viability 3 days post-infection by XTT assay. Concurrently, the cytotoxicity of each compound was assessed from identical dilutions in uninfected Vero E6 cells. To confirm anti-SARS-CoV-2 activity in the CPE inhibition assay, selected compounds were tested in immunofluorescence assay, where inhibition of SARS-CoV-2 replication was monitored as reduction in nucleoprotein expression using fluorescence microscope. […] Among the CBG derivatives, we can find quite cytotoxic and non-cytotoxic derivatives as well.
(§2) For CPE-based assay, two-fold fold serial dilutions of compounds from 100 µM were added in triplicate in a 384-well plate with 5000 Vero E6 cells in DMEM medium with 2% FBS, 100 U of penicillin/ml and 100 µg of streptomycin/ml (all Merck). After 1 h incubation SARS-CoV-2 (strain hCoV-19/Czech Republic/NRL_6632_2/2020) was added at multiplicity of infection […]. Following three days incubation at 37 °C in 5% CO2 the cell viability was determined by addition of XTT solution (Sigma-Aldrich) for 4 h and the absorbance was measured using EnVision plate reader (Perkin Elmer). Drug concentrations required to reduce viral cytopathic effect by 50% (EC50) were calculated using nonlinear regression from plots of percentage cell viability versus log10 drug concentration using GraphPad Prism (version 9.0.0, GraphPad Software, LLC). For immunofluorescence assay, two-fold fold serial dilutions of compounds from 100 µM were added in triplicate in 96-well plate with 15,000 Vero E6 cells plated day before in the same medium as above. After 1 h incubation, SARS-CoV-2 was added at multiplicity of infection 0.05 IU/cell. After three days of incubation, cells were fixed with 4% paraformaldehyde, permeabilized with 0.2% Triton X100 (both Merck), washed, incubated with anti-SARS-CoV-2antibody (mouse monoclonal antibody detecting SARS-CoV-2 nucleoprotein) for 2 h at room temperature. Followed by 1.5 h incubation with Cy3-labeled donkey anti-mouse IgG (Jackson ImmunoResearch Europe) and documented using fluorescence microscope with camera (Olympus). Images were processed in ImageJ software (NIH) and compound concentrations required to reduce fluorescence by 50% (EC50s) were calculated from plots of percentage of fluorescent cells versus log10 drug concentration using nonlinear regression analysis as above. Cytotoxicity was evaluated by incubating with the same two-fold serial dilutions of each compound as above with Vero E6 cells in 384-well plate.

[5] = system: Enterococcus faecalis 29 212; assay: MIC, broth micro dilution
Description: as §6

[6] = system: SARS-CoV-2; assay: SARS-CoV-2 cytopathic effect (CPE) inhibition assay in Vero E6 cells (XTT); type: cell-based; conditions: for EC50: Vero E6 cells, 3 days post-infection, XTT
Description: as §1, §2

[7] = system: Staphylococcus epidermidis biofilm forming; assay: MIC, broth micro dilution
Description: as §6

[8] = system: Staphylococcus epidermidis mecA; assay: MIC, broth micro dilution
[9] = system: MRSA (Methicillin Resistant Staphylococcus aureus); assay: MIC, broth micro dilution
Description: as §6

[10] = system: Enterococcus faecalis 51299 VanB; assay: MIC, broth micro dilution
Description: as §6

[11] = system: Enterococcus faecalis 15 376 VanA; assay: MIC, broth micro dilution
[12] = system: SiHa cells; assay: Antiproliferative MTT assay, 72 h; type: cell-based, human; conditions: 10 and 30 μM
Source text: (§3) Human adherent cancer cell lines A2780, MDA-MB-231 and MCF-7 were obtained from ECACC (European Collection of Cell Cultures, Salisbury, UK; Cat. No.93112519, 92020424, 86012803, respectively). SiHa cell line was obtained from ATCC (American Tissue Culture Collection, Manassas, Virginia, USA; Cat. No. HTB-35). All cell lines used for antiproliferative assay were maintained in Eagle's Minimum Essential Medium (EMEM) completed with 10% fetal bovine serum (FBS), 1% non-essential amino acid solution, and 1% penicillin, streptomycin, and amphotericin B mixture under cell culture conditions described before. All the utilized media and supplements were purchased from Lonza Group Ltd. (Basel, Switzerland).
(§4) The antiproliferative actions of the prepared molecules were determined by the same assay against a panel of adherent human cancer cell lines containing cervical (SiHa), ovarian (A2780) and breast (MCF7, MDA-MB-231) cell lines. Cells were plated onto 96-well microplates (5000 cells/well) and after an overnight incubation treated with two concentrations (10 or 30 μM) of the test substances for 72 h under cell culture conditions. Subsequently, MTT (5 mg/ml in phosphate buffer) was added to the wells, followed by incubation for 4 h. The supernatant was removed, the formazan crystals were then dissolved in 100 µl DMSO. Finally, absorbance values were determined by a microplate reader (BMG Labtech, Ortenberg, Germany) at 545 nm. Two independent measurements were performed with five parallel wells. Results were expressed as percentage of cell proliferation inhibition compared to non-treated control samples regarded as 0%.

[13] = system: MCF7 cells; assay: Antiproliferative MTT assay, 72 h; type: cell-based, human; conditions: MCF7, 10 and 30 μM
Source text: as §3, §4

[14] = system: MDA-MB-231 cells; assay: Antiproliferative MTT assay, 72 h; type: cell-based, human; conditions: MDA-MB-231, 10 and 30 μM
Source text: as §3, §4

[15] = system: A2780 cells; assay: Antiproliferative MTT assay, 72 h; type: cell-based, human; conditions: A2780, 10 and 30 μM
Source text: as §3, §4

[16] = system: SZ95 sebocytes; assay: Viability MTT-assay on sebocytes, 48 h; type: cell-based, human; conditions: 30 μM
Description: (§5) Human immortalized SZ95 sebocytes, originated from human facial sebaceous glands[50] were provided by prof. Christos C. Zouboulis, and were cultured in Sebomed® Basal Medium (Cat. No. F8205; Sigma-Aldrich) supplemented with 10% FBS (Gibco-Thermo Fisher Scientific), 1 mM CaCl2 (Cat. No. C7902; Sigma-Aldrich), 5 ng/ml human epidermal growth factor (Cat. No. E9644; Sigma-Aldrich), and MycoZap™ Plus-CL (1:500; Lonza). The medium was changed every other day, and cells were subcultured at 60–70% confluence.
The viability of HaCaT keratinocytes and SZ95 sebocytes was determined by MTT-assay[58] (Cat. No. M5655; Sigma-Aldrich) measuring the conversion of the tetrazolium salt to formazan by mitochondrial dehydrogenases. Cells were plated in 96-well plates (20,000 cells/well), and were treated as indicated. Cells were then incubated with 0.5 mg/ml MTT reagent for 3 h, and concentration of formazan crystals (as an indicator of number of viable cells) was determined colorimetrically at 565 nm by using FlexStation 3 multi-mode microplate reader (Molecular Devices). Results were expressed as percentage of vehicle-treated control regarded as 100%.

[17] = system: SZ95 sebocytes; assay: Nile Red-assay, spontaneous sebaceous lipogenesis; type: cell-based, human; conditions: applied alone, 48 h
[18] = system: SZ95 sebocytes; assay: Nile Red-assay, arachidonic acid-induced lipogenesis; type: cell-based, human; conditions: 50 μM arachidonic acid, 48 h
Description: as §5
For quantitative measurement of sebaceous (neutral) lipid content, SZ95 sebocytes (20,000 cells/well) were cultured in 96-well “black well/clear bottom” plates (Cat. No. 655090; Greiner Bio-One, Frickenhausen, Germany), and were treated with compounds in the presence or absence of arachidonic acid (AA; Cat. No. 90010; Cayman Chemical Company, Ann Arbor, MI, USA) or its vehicle (absolute ethanol) as indicated. Subsequently, supernatants were discarded, cells were washed twice with phosphate-buffered saline (PBS; 115 mM NaCl, 20 mM Na2HPO4, pH 7.4; all from Sigma-Aldrich), and 100 µl of a 1 µg/ml Nile Red (Cat. No. N3013; Sigma-Aldrich) solution in PBS was added to each well. The plates were then incubated at 37 °C for 30 min, and fluorescence was measured on FlexStation 3 multimode microplate reader (Molecular Devices, San Francisco, CA, USA). Results, measured in relative fluorescence units, are expressed as percentage of the vehicle (absolute ethanol; Cat. No. 20821.296; VWR International)-treated control regarded as 100%, using 485 nm excitation and 565 nm emission wavelengths.

[19] = in vitro; conditions: African green monkey
[20] = Staphylococcus epidermidis biofilm forming
[21] = Staphylococcus epidermidis mecA
[22] = Enterococcus faecalis 51299 VanB
[23] = Enterococcus faecalis 15 376 VanA
[24] = Severe acute respiratory syndrome coronavirus 2, Vero C1008, 72 h

SMILES | CC50 [1] | MIC [2] | MIC [3] | EC50 [4] | MIC ([5]; Enterococcus faecalis 29 212) | EC50 [6] | MIC [7, 20] | MIC [8, 21] | MIC [9] | MIC [10, 22] | MIC [11, 23] | antiproliferative activity (in words) [12] | antiproliferative activity (in words) [13] | antiproliferative activity (in words) [14] | antiproliferative activity (in words) [15] | viability (MTT signal intensity) [16] | spontaneous, homeostatic sebaceous lipogenesis [17] | effect on the lipogenic effect of arachidonic acid (AA) [18] | also measured
C#CCN1COc2c(c(CCCCC)cc(O)c2[C@@H]2C=C(C)CC[C@H]2C(=C)C)C1 [Compound 11] | 77 ± 2.6 µM | > 256 µg/mL | > 256 µg/mL | 33 ± 1.4 µM | 128 µg/mL (≈ 325 µM) | 17 ± 1.5 µM | > 256 µg/mL | > 256 µg/mL | > 256 µg/mL | 128 µg/mL (≈ 325 µM) | > 256 µg/mL | None of the other tested CBD analogs (9, 11, and 12) exhibited substantial antiproliferative activity | None of the other tested CBD analogs (9, 11, and 12) exhibited substantial antiproliferative activity | None of the other tested CBD analogs (9, 11, and 12) exhibited substantial antiproliferative activity | None of the other tested CBD analogs (9, 11, and 12) exhibited substantial antiproliferative activity |  |  |  | 
CCCCCc1cc(O)c(C/C=C(\C)CCC=C(C)C)c2c1CN(CCCC)CO2 [Compound 16a] |  |  |  |  |  |  |  |  |  |  |  |  |  |  |  | tended to suppress viability | mimicked the previously reported weak lipogenic effect of CBG | suppress the effect of AA | 
CCCCCc1c2c(c(C/C=C(\C)CCC=C(C)C)c3c1CN(CCCC)CO3)OCN(CCCC)C2 [Compound 16b] | 7.7 ± 3.2 µM | > 256 µg/mL | > 256 µg/mL |  | 64 µg/mL (≈ 125 µM) | > 7.7 µM | > 256 µg/mL | > 256 µg/mL | > 256 µg/mL | 64 µg/mL (≈ 125 µM) | > 256 µg/mL | more active than CBG | more active than CBG | more active than CBG | more active than CBG |  |  |  | 
C#CCN1COc2c(C/C=C(\C)CCC=C(C)C)c(O)cc(CCCCC)c2C1 [Compound 18] | ~28 µM | > 256 µg/mL | > 256 µg/mL | > 28 µM | 64 µg/mL (≈ 162 µM) | 15 ± 0.94 µM | > 256 µg/mL | > 256 µg/mL | > 256 µg/mL | 64 µg/mL (≈ 162 µM) | > 256 µg/mL |  |  |  |  |  |  |  | 
CCCCCc1c(CN(CC)CC)c(O)c(C/C=C(\C)CCC=C(C)C)c(O)c1CN(CC)CC [Compound 21b] |  | > 256 µg/mL |  |  |  |  |  |  |  |  |  |  |  |  |  | rather increased MTT signal intensity | mimicked the previously reported weak lipogenic effect of CBG | suppress the effect of AA | CC50 [19]: > 100 µM; MIC ([3]; Staphylococcus aureus): > 256 µg/mL; EC50 [4, 24]: > 100 µM; MIC ([5]; Enterococcus faecalis, 29212): 64 µg/mL (≈ 131 µM); EC50 [6, 24]: 12 ± 0.99 µM; IC50 ([6]; Severe acute respiratory syndrome coronavirus 2, Vero C1008, read-out: IC50 (anti-SARS-CoV-2 activity, Figure 8)): 12 µM; MIC ([7]; Staphylococcus epidermidis): > 256 µg/mL; MIC ([8]; Staphylococcus epidermidis): > 256 µg/mL; MIC ([9]; Staphylococcus aureus): > 256 µg/mL; MIC ([10]; Enterococcus faecalis, 51299VANB): 64 µg/mL (≈ 131 µM); MIC ([11]; Enterococcus faecalis, 15376VANA): > 256 µg/mL
